Laboratory results: PubChem BioAssay (NCI)
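Exposure lasted 48 hours, with cells grown in 96-well plates and compounds tested at five concentrations. GI50: concentration for 50% inhibition of growth. At the TGI there is no net growth.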

Columns and labels:
Test in all cases: NCI-60 cell line screen, 48 h
A549 NSCLC = tested on: A549 NSCLC
CAKI-1 renal = tested on: CAKI-1 renal
CCRF-CEM leukemia = tested on: CCRF-CEM leukemia
HCC-2998 colon = tested on: HCC-2998 colon
HOP-62 NSCLC = tested on: HOP-62 NSCLC
HOP-92 NSCLC = tested on: HOP-92 NSCLC
IGROV1 ovarian = tested on: IGROV1 ovarian
KM12 colon = tested on: KM12 colon
RPMI-8226 leukemia = tested on: RPMI-8226 leukemia
DU-145 prostate = tested on: DU-145 prostate

| Structure (SMILES) | TGI (A549 NSCLC) [µM] | TGI (CAKI-1 renal) [µM] | TGI (CCRF-CEM leukemia) [µM] | TGI (HCC-2998 colon) [µM] | TGI (HOP-62 NSCLC) [µM] | TGI (HOP-92 NSCLC) [µM] | TGI (IGROV1 ovarian) [µM] | TGI (KM12 colon) [µM] | TGI (RPMI-8226 leukemia) [µM] | GI50 (A549 NSCLC) [µM] | GI50 (CAKI-1 renal) [µM] | GI50 (DU-145 prostate) [µM] | TGI (DU-145 prostate) [µM] | GI50 (HCC-2998 colon) [µM] | GI50 (HOP-62 NSCLC) [µM] | GI50 (HOP-92 NSCLC) [µM] | GI50 (IGROV1 ovarian) [µM] | GI50 (KM12 colon) [µM] | GI50 (CCRF-CEM leukemia) [µM] | GI50 (RPMI-8226 leukemia) [µM] |
| --- | --- | --- | --- | --- | --- | --- | --- | --- | --- | --- | --- | --- | --- | --- | --- | --- | --- | --- | --- | --- |
| COc1ccccc1NC(=O)c1nc2ccc([N+](=O)[O-])cc2nc1C | > 100 | > 100 | > 100 | > 100 | > 100 | > 100 | > 100 | > 100 | > 100 |  |  |  |  |  |  |  |  |  |  |  |
| N/N=c1\c2ccccc2c2cc3c(cc12)/c(=N/N)c1ccccc13 | > 100 |  | > 100 | > 100 | > 100 | > 100 | > 100 | > 100 | > 100 |  |  |  |  |  |  |  |  |  |  |  |
| COc1cc(/C=C2\C[C@H]3[C@@H]4CC=C5C[C@@H](O)CC[C@]5(C)[C@H]4CC[C@]3(C)[C@H]2O)ccc1OCCCn1ccnc1 | 2.63 | 7.86 |  | 16.1 | 20 | 12.5 | > 50 | 7.2 |  | 1.18 | 1.81 | 1.92 | 7.45 | 8.22 | 3.45 | 4.44 | 12.5 | 1.82 |  |  |
| O=C(/C(=C\c1ccc(Cl)cc1)c1ccccc1)c1ccccc1 |  |  | > 100 | > 100 | > 100 | > 100 | > 100 | 74.3 | > 100 |  |  |  |  |  |  |  |  |  |  |  |
| Clc1cc(Cl)cc(N2N=C(c3cccc(Nc4ccncc4)c3)CC2c2ccc3c(c2)OCO3)c1 (stereo not given) |  | 2.9 | 18.4 | 3.37 | 3.64 | 2.82 | 3.18 | 3.35 |  |  | 1.54 | 1.71 | 3.13 | 1.84 | 1.79 | 1.39 | 1.62 | 1.78 | 2.72 |  |
| OCc1c[te]c(-c2ccccc2)c1 | > 100 | > 100 | > 100 | > 100 | > 100 |  | > 100 | > 100 | 86.8 |  |  |  |  |  |  |  |  |  |  |  |
| Cn1c(/C=C/[N+](=O)[O-])cc2ccccc21 | 7.83 |  | > 100 | 3.36 | 27.6 |  | 5.44 | 3.15 | > 100 | 2.68 |  | 1.65 | 3.21 | 1.84 | 8.39 |  | 2.05 | 1.69 | 16.9 | 3.18 |
| Cc1ccc(S(=O)OCC23CC4CC(CC(C4)C2)C3)cc1 (stereo not given) | > 100 | > 100 |  | > 100 | > 100 | > 100 | > 100 | > 100 | > 100 |  |  |  |  |  |  |  |  |  |  |  |
| NNC(=O)N/N=C1\C(=O)N(c2ccc(Cl)c(Cl)c2)C(=O)C(=O)C1c1nc2ccccc2s1 (stereo not given) | > 100 | > 100 | > 100 | > 100 | > 100 | > 100 | > 100 | > 100 |  |  |  |  |  |  |  |  |  |  |  |  |
| O=C(c1ccco1)c1c(C(F)(F)F)n([O-])c2ccc(Cl)cc2[n+]1=O | 2.44 | 4.21 | 0.838 | 0.216 | 0.617 |  |  | 4.13 |  | 0.615 | 0.961 | 0.341 | 1.44 | 0.101 | 0.194 |  | 0.404 | 1.93 |  |  |
| COc1cc([N+](=O)[O-])c(OC)cc1-c1nc2sc(Cl)cn2c1/C=N/NC1=NCCN1 |  | 51.7 |  | 1.22 | 2.53 |  |  | 2.49 |  |  | 12.9 | 0.306 | 1.14 | 0.597 | 1.2 |  |  | 0.833 |  |  |
| CC(=O)Oc1ccc(/C(=C(\C)c2ccc(Cl)cc2)c2ccc(OCCN3CCCCC3)cc2)cc1 | 4.15 |  | 6.67 | 3.68 | 4.23 | 4.42 | 5.14 | 3.97 | 4.64 | 1.94 |  | 1.92 | 3.83 | 1.87 | 2.05 | 1.64 | 2.35 | 1.77 | 2.2 | 2.1 |
| O=C(COC(=O)c1cccc2c(=O)c3ccccc3[nH]c12)Nc1ccc(C(=O)O)cc1 | > 100 | > 100 | > 100 | > 100 | > 100 | > 100 | > 100 | > 100 |  |  |  |  |  |  |  |  |  |  |  |  |
| Cc1cc(C)nc(NS(=O)(=O)c2ccc(Nc3c4ccc(Cl)cc4nc4c(C(=O)NCCN(C)C)cccc34)cc2)n1 | > 100 | > 100 | > 100 | > 100 | > 100 | > 100 | > 100 | > 100 | > 100 |  |  |  |  |  |  |  |  |  |  |  |
| COC(=O)C(Cc1nc2ccccc2nc1C)/C(=N\NC(N)=O)C(=O)Nc1cccc([N+](=O)[O-])c1 (stereo not given) | > 100 | > 100 | > 100 | > 100 | > 100 |  | > 100 | > 100 | > 100 |  |  |  |  |  |  |  |  |  |  |  |
| COC(=O)C1=C(C(=O)OC)C2(C)Nc3ccccc3C2=C(c2ccccc2)C1 (stereo not given) | 46.7 |  | 47.4 | 64.2 | 50.1 | 38.9 | 52.9 | 30.3 | 29.6 |  |  |  |  |  |  |  |  |  |  |  |
| COc1cc(C(=O)Nc2cc(OC)c3ccn(C)c3c2)cc2c1C[C@]1(C)CC[C@@H](O)C(C)(C)[C@H]1O2 | 33.7 |  | > 100 | 49.8 | 13.1 | 6.03 | > 100 | > 100 | 1.16 |  |  | 1.22 | 29 | 3.74 | 0.77 | 0.593 | 1.7 | 2.08 | 0.0927 | 0.0392 |
| O=C(Nc1ccccc1)c1cc(S(=O)(=O)Nc2nc3ccccc3o2)c(SCc2ccccc2)cc1Cl | 53.8 | 35.5 | 28.5 | 34.8 | 42.5 |  | 36.7 | 32.6 | 46.8 | 21 | 19.3 | 16.5 | 32.4 | 18.7 | 20.2 |  | 17.9 | 16.7 | 11.4 | 15.4 |
| COc1ccc(C(=O)C(c2ccc(OCc3ccccc3)cc2)c2ccc(OCc3ccccc3)cc2)cc1 | > 100 | > 100 | > 100 | > 100 | > 100 | > 100 | > 100 | > 100 | > 100 |  |  |  |  |  |  |  |  |  |  |  |
